Measurements as given in article PMC10053710, “Influence of Lipidation Pattern of the KR12 Fragment of Peptide LL-37 on Its Antibacterial and Hemolytic Activities” (International Journal of Molecular Sciences, 2023).
In brackets after ≈: the same amount, converted by molar mass. Where a SMILES comes first, the peptide text is derived from it. The star is where a group is joined. Octanoyl = CCCCCCCC(=O)*; X3 = CCCCC(CC)C(=O)*

How the values were obtained:
[1] = test system: Enterococcus faecium ATCC 700221; type: cell-based; details: ATCC 700221, 18 h
Protocol: (§1) Tests of the antibacterial activity were carried out as we just described. Briefly, for assays, the following strains of ESKAPE bacteria were chosen: Acinetobacter baumannii ATCC BAA-1605, Enterococcus faecium ATCC 700221, Klebsiella aerogenes ATCC 13048 (formerly Enterobacter aerogenes), Klebsiella pneumoniae ATCC 700603, and Pseudomonas aeruginosa ATCC 9027. Moreover, the reference strains of Staphylococcus aureus were used: S. aureus ATCC 25923, S. aureus ATCC 6538, S. aureus ATCC 33591 (MRSA), S. aureus ATCC 9144, and S. aureus ATCC 12598. Before experiments, all the strains were stored at −80 °C in Roti®-Store cryo vials (Carl Roth GmbH, Karlsruhe, Germany). To evaluate the activity of the compounds, bacteria were transferred into fresh Mueller–Hinton medium (Becton Dickinson, Warszawa, Poland) and incubated for 24 h at 37 °C. In the next step, bacterial inoculums were seeded on Mueller–Hinton agar plates (BioMaxima SA, Lublin, Poland) and incubated again for 24 h. The MIC values were determined using the broth microdilution method according to the Clinical and Laboratory Standards Institute Protocol. The initial inoculums of bacteria (0.5 × 10^5 colony forming units (CFU)/mL) prepared in Mueller–Hinton broth were exposed to the ranging concentrations of peptides (1–512 µg/mL). The experiments were conducted on 96-well microtiter plates, with a final volume of 100 µL. The inoculum densities were checked spectrophotometrically (Multiskan™ GO Microplate Spectrophotometer, Thermo Scientific, Waltham, MA, USA) at 600 nm. The results were read after incubation for 18 h at 37 °C. The MIC values were the lowest concentration at which a visible growth of microorganisms was inhibited. All experiments were conducted in triplicate. Moreover, positive (growth) and negative (sterility) controls were included.

[2] = test system: Klebsiella aerogenes ATCC 13048; type: cell-based; details: ATCC 13048, 18 h
Protocol: as §1

[3] = test system: Klebsiella pneumoniae ATCC 700603; type: cell-based; details: ATCC 700603, 18 h
Protocol: as §1

[4] = test system: Pseudomonas aeruginosa ATCC 9027; type: cell-based; details: ATCC 9027, 18 h
Protocol: as §1

[5] = test system: S. aureus ATCC 12598; type: cell-based, Staphylococcus aureus; details: ATCC 12598, 18 h
Protocol: as §1

[6] = test system: S. aureus ATCC 25923; type: cell-based, Staphylococcus aureus; details: ATCC 25923, 18 h
Protocol: as §1

[7] = test system: S. aureus ATCC 33591 (MRSA); type: cell-based, Staphylococcus aureus; details: ATCC 33591, 18 h
Protocol: as §1

[8] = test system: S. aureus ATCC 6538; type: cell-based, Staphylococcus aureus; details: ATCC 6538, 18 h
Protocol: as §1

[9] = test system: S. aureus ATCC 9144; type: cell-based, Staphylococcus aureus; details: ATCC 9144, 18 h
Protocol: as §1

[10] = 18 h
[11] = test system: human red blood cells (hRBCs); test: Hemolysis assay; details: fresh batch of blood (footnote a); 4% (v/v) erythrocytes in PBS, peptides 1–512 µg/mL, 1 h at 37 °C, hemoglobin at 540 nm

MIC E. faecium [1] [mg/L]	MIC K. aerogenes [2] [mg/L]	MIC K. pneumoniae [3] [mg/L]	MIC P. aeruginosa [4] [mg/L]	MIC S. aureus 12598 [5] [mg/L]	MIC S. aureus 25923 [6] [mg/L]	MIC S. aureus 33591 [7] [mg/L]	MIC S. aureus 6538 [8] [mg/L]	MIC S. aureus 9144 [9] [mg/L]	MIC A. baumannii [10] [mg/L]	SMILES	MHC5 (minimum hemolytic concentration causing 5% hemolysis of hRBCs) [11]
4 (≈ 2.36 µM)	16 (≈ 9.43 µM)	16 (≈ 9.43 µM)	128 (≈ 75.4 µM)	32 (≈ 18.9 µM)	64 (≈ 37.7 µM)	16 (≈ 9.43 µM)	16 (≈ 9.43 µM)	32 (≈ 18.9 µM)	16 (≈ 9.43 µM)	CCCCC(CC)C(=O)N[C@@H](CCCCN)C(=O)N[C@@H](CCCNC(=N)N)C(=O)N[C@H](C(=O)N[C@H](C(=O)N[C@@H](CCC(N)=O)C(=O)N[C@@H](CCCNC(=N)N)C(=O)N[C@H](C(=O)N[C@@H](CCCCN)C(=O)N[C@@H](CC(=O)O)C(=O)N[C@@H](Cc1ccccc1)C(=O)N[C@@H](CC(C)C)C(=O)N[C@@H](CCCNC(=N)N)C(N)=O)[C@@H](C)CC)C(C)C)[C@@H](C)CC (some centres unmarked) [XIV, 2-Ethylhexanoic acid-KR12-NH2] (X3-KRIVQRIKDFLR-NH2)	256 ^a µg/mL
16 (≈ 9.59 µM)	64 (≈ 38.3 µM)	128 (≈ 76.7 µM)	64 (≈ 38.3 µM)	512 (≈ 307 µM)	128 (≈ 76.7 µM)	512 (≈ 307 µM)	64 (≈ 38.3 µM)	512 (≈ 307 µM)	32 (≈ 19.2 µM)	CCCCCCCC(=O)NCCCC[C@H](NC(=O)[C@H](CC(C)C)NC(=O)[C@H](Cc1ccccc1)NC(=O)[C@H](CC(=O)O)NC(=O)[C@H](CCCCN)NC(=O)[C@@H](NC(=O)[C@H](CCCNC(=N)N)NC(=O)[C@H](CCC(N)=O)NC(=O)[C@@H](NC(=O)[C@@H](NC(=O)[C@H](CCCNC(=N)N)NC(=O)[C@@H](N)CCCCN)[C@@H](C)CC)C(C)C)[C@@H](C)CC)C(N)=O [VII, [Lys^ε(C8)]^12KR12-NH2] (H-KRIVQRIKDFLK(Octanoyl)-NH2)	
4 (≈ 2.19 µM)	64 (≈ 35.1 µM)	32 (≈ 17.5 µM)	32 (≈ 17.5 µM)	32 (≈ 17.5 µM)	64 (≈ 35.1 µM)	32 (≈ 17.5 µM)	64 (≈ 35.1 µM)	32 (≈ 17.5 µM)	16 (≈ 8.77 µM)	CCCCCCCC(=O)NCCCC[C@H](NC(=O)[C@H](CCCNC(=N)N)NC(=O)[C@H](CC(C)C)NC(=O)[C@H](Cc1ccccc1)NC(=O)[C@H](CC(=O)O)NC(=O)[C@H](CCCCN)NC(=O)[C@@H](NC(=O)[C@H](CCCNC(=N)N)NC(=O)[C@H](CCC(N)=O)NC(=O)[C@@H](NC(=O)[C@@H](NC(=O)[C@H](CCCNC(=N)N)NC(=O)[C@@H](N)CCCCN)[C@@H](C)CC)C(C)C)[C@@H](C)CC)C(N)=O [VI, KR12-Lys^ε(C8)-NH2] (H-KRIVQRIKDFLRK(Octanoyl)-NH2)	
4 (≈ 2.36 µM)	64 (≈ 37.7 µM)	32 (≈ 18.9 µM)	64 (≈ 37.7 µM)	64 (≈ 37.7 µM)	32 (≈ 18.9 µM)	64 (≈ 37.7 µM)	8 (≈ 4.71 µM)	32 (≈ 18.9 µM)	32 (≈ 18.9 µM)	CCCCCCCC(=O)NCCCC[C@H](N)C(=O)N[C@@H](CCCNC(=N)N)C(=O)N[C@H](C(=O)N[C@H](C(=O)N[C@@H](CCC(N)=O)C(=O)N[C@@H](CCCNC(=N)N)C(=O)N[C@H](C(=O)N[C@@H](CCCCN)C(=O)N[C@@H](CC(=O)O)C(=O)N[C@@H](Cc1ccccc1)C(=O)N[C@@H](CC(C)C)C(=O)N[C@@H](CCCNC(=N)N)C(N)=O)[C@@H](C)CC)C(C)C)[C@@H](C)CC [III, C8^ε-KR12-NH2] (H-K(Octanoyl)RIVQRIKDFLR-NH2)	
